Test results: patent publication EP1525798B1, “Carbohydrate oxidase and use thereof in baking” (Novozymes A/S, priority 1997, dated 1999)

system: T1, carbohydrate oxidase from M. nivale (Microdochium nivale CBS 100236, SEQ ID NO: 2), wild type; assay: Steady state kinetics (apparent Km) by the 4AA-TOPS assay; type: biochemical; details: apparent value from Lineweaver-Burke plot, simple Michaelis-Menten kinetics assumed, carbohydrate substrate concentration varied, phosphate/citrate pH 6
T1 construct: made in house
Description: Assays are carried out in 96 well microtiter plates. 100 µl 0.1 M phosphate/citrate, pH 6 is mixed with 50 µl 0.24 M glucose and 50 µl pre-mix (3 mM 4-aminoantipyrine (4AA), 7 mM N-ethyl-N-sulfopropyl-m-toluidine (TOPS), 40 PODU/ml rCiP) and the reaction is started by adding 40 µl of oxidase solution diluted appropriately. Absorption is measured at 490 nm as a function time using the Vmax microtiter plate ready from Molecular Devices and the activity is taken as the slope of the linear increase in absorption.
Steady state kinetics was conducted by varying the concentration of the carbohydrate substrates and determining the carbohydrate oxidase activity by the 4AA-TOPS assay. Simple Michaelis-Menten kinetics was assumed although the reaction is not a simple one substrate-one product mechanism (E+S↔ES↔E+P).
The steady state kinetics for the carbohydrate oxidase from M. nivale were investigated using some of the preferred substrates. Kinetic constants were obtained from a Lineweaver-Burke plot, assuming simple Michaelis-Menten kinetics (although this is a rather poor assumption) to obtain apparent values "Km" and "Vmax" for various substrates.

Going from `O=C[C@H](O)[C@@H](O)[C@H](O[C@@H]1O[C@H](CO)[C@@H](O)[C@H](O)[C@H]1O)[C@H](O)CO` [Cellobiose] to `OC[C@H]1O[C@H](O[C@H]2[C@H](O)[C@@H](O)C(O)O[C@@H]2CO)[C@H](O)[C@@H](O)[C@@H]1O` (mixture of isomers) [Maltose], the Km falls from 59 mM to 11 mM (5.4-fold).

In the case of `OC[C@H]1OC(O)[C@H](O)[C@@H](O)[C@@H]1O` (stereo partly drawn) [Glucose], the Km was 42 mM.
